Data as given in publication PMC8286840, “Identifying SARS-CoV-2 antiviral compounds by screening for small molecule inhibitors of Nsp3 papain-like protease” (Biochemical Journal, 2021).
Where a name gives a salt, the structure may show the parent alone. Read-outs that look alike come from different tables or passages of the source.

What was measured:
[1] = target: T1, SARS-CoV-2 PLpro (nsp3 1564–1878) (Severe acute respiratory syndrome coronavirus 2, UniProt P0DTD1); experiment: biochemical; parameters: FRET-quenched peptide (Pro3) cleavage by PLpro, 10 min pre-incubation, slope over 20 min, normalised to no-compound control; settings: low concentration screen, read-out: % of control remaining
[2] = target: T1, SARS-CoV-2 PLpro (nsp3 1564–1878); experiment: biochemical; parameters: FRET-quenched peptide (Pro3) cleavage by PLpro, 10 min pre-incubation, slope over 20 min, normalised to no-compound control; settings: high concentration screen, read-out: % of control remaining

For `O=c1[nH]c2ccccc2n1CCCN1CCN(C(c2ccccc2)c2ccccc2)CC1` [Oxatomide], the remaining activity at 1.25 µM ([1]; Well no.=994) was 103%, the remaining activity at 1.25 µM ([1]; Well no.=1855) was 95.4% and the remaining activity at 3.75 µM ([2]; Well no.=994) was 101%. The remaining activity at 3.75 µM ([2]; Well no.=1855) was 98.9%.
With `O=C(O)[C@@H]1C[C@@H](C(=O)O)N1` (relative stereo) [trans-Azetidine-2,4-dicarboxylic acid] the remaining activity at 1.25 µM ([1]; Well no.=68) was 104% and the remaining activity at 3.75 µM ([2]; Well no.=68) was 103%.
`COc1ncc(-c2ccc3nccc(-c4ccnnc4)c3c2)cc1NS(=O)(=O)c1ccc(F)cc1F` [GSK2126458] was tested, and the remaining activity at 1.25 µM ([1]; Well no.=5308) was 95.7% and the remaining activity at 3.75 µM ([2]; Well no.=5308) was 94.1%.
`O=C(O)Cc1ccccc1` [Sodium Phenylacetate] showed a remaining activity at 1.25 µM ([1]; Well no.=1884) of 94.7% and a remaining activity at 3.75 µM ([2]; Well no.=1884) of 97.8%.
In the case of `CC1(C)C[C@@H]1C(=O)N/C(=C\CCCCSC[C@H](N)C(=O)O)C(=O)O` [Cilastatin], the remaining activity at 1.25 µM ([1]; Well no.=2198) is reported as 94.3% and the remaining activity at 3.75 µM ([2]; Well no.=2198) is reported as 95.6%.
For `COc1cc(CC(=O)O)ccc1O` [4-Hydroxy-3-methoxyphenylacetic acid], the remaining activity at 1.25 µM ([1]; Well no.=750) was 99.7% and the remaining activity at 3.75 µM ([2]; Well no.=750) was 97.2%.
Molecule `CC(=O)OCC(=O)[C@@]1(O)[C@H](C)C[C@H]2[C@@H]3CCC4=CC(=O)C=C[C@]4(C)[C@@]3(F)[C@@H](O)C[C@@]21C` [Dexamethasone (acetate)] has a remaining activity at 1.25 µM ([1]; Well no.=6465) of 107% and a remaining activity at 3.75 µM ([2]; Well no.=6465) of 106%.
`C[C@@H]1C(=O)O[C@H]2C[C@@]34[C@H]5C[C@@H](C(C)(C)C)[C@]36[C@@H](OC(=O)[C@@H]6O)O[C@@]4(C(=O)O5)[C@]21O` [Ginkgolide A] was tested, and the remaining activity at 1.25 µM ([1]; Well no.=1908) was 98.7%, the remaining activity at 1.25 µM ([1]; Well no.=3613) was 106% and the remaining activity at 3.75 µM ([2]; Well no.=1908) was 96.1%. It also gave a remaining activity at 3.75 µM ([2]; Well no.=3613) of 104%.
`COc1cc(SC)ccc1C(=O)N1CCC(Cc2ccccc2)CC1` [p38 MAP Kinase Inhibitor VI, JX401] gave a remaining activity at 1.25 µM ([1]; Well no.=2529) of 101% and a remaining activity at 3.75 µM ([2]; Well no.=2529) of 105%.
`S=C(Nc1ccccc1)Nc1nccs1` [1-Phenyl-3-(2-thiazolyl)-2-thiourea] was tested, and the remaining activity at 1.25 µM ([1]; Well no.=858) was 99.5% and the remaining activity at 3.75 µM ([2]; Well no.=858) was 96.6%.
In the case of `CC(=O)N[C@H]1[C@H]([C@H](O)[C@H](O)CO)OC(O)(C(=O)O)C[C@@H]1O` (stereo partly shown) [N-Acetylneuraminic acid], the remaining activity at 1.25 µM ([1]; Well no.=6491) is reported as 92.4% and the remaining activity at 3.75 µM ([2]; Well no.=6491) is reported as 94.5%.
With `C[N+]1(C)[C@@H]2CC[C@H]1C[C@@H](OC(=O)C(CO)c1ccccc1)C2` (stereo partly shown) [Atropine methyl bromide] the remaining activity at 1.25 µM ([1]; Well no.=117) was 100% and the remaining activity at 3.75 µM ([2]; Well no.=117) was 96.6%.
`COc1ccc2c(c1)c(CC(=O)O)c(C)n2Cc1ccc(F)cc1` [1-(4-Fluorobenzyl)-5-methoxy-2-methylindole-3-acetic acid] showed a remaining activity at 1.25 µM ([1]; Well no.=515) of 99.4% and a remaining activity at 3.75 µM ([2]; Well no.=515) of 99.5%.
In the case of `CN(C)CCC=C1c2ccccc2COc2ccccc21` [Doxepin hydrochloride], the remaining activity at 1.25 µM ([1]; Well no.=451) is reported as 105% and the remaining activity at 3.75 µM ([2]; Well no.=451) is reported as 102%.
Molecule `O=C(Cc1ccc(Cl)c(Cl)c1)OCCN1CCCC1` [AC 915 oxalate] has a remaining activity at 1.25 µM ([1]; Well no.=61) of 104% and a remaining activity at 3.75 µM ([2]; Well no.=61) of 102%.
`CCCCCCCCC(=O)NCc1cc(OC)c(O)cc1I` [6-Iodonordihydrocapsaicin] gave a remaining activity at 1.25 µM ([1]; Well no.=5963) of 95.9% and a remaining activity at 3.75 µM ([2]; Well no.=5963) of 99%.
Work on `C#C[C@]1(O)C=C[C@H]2[C@@H]3CCC4=CC(=O)CC[C@@H]4[C@H]3CC[C@@]21CC` [Gestodene] yielded a remaining activity at 1.25 µM ([1]; Well no.=5260) of 93.5% and a remaining activity at 3.75 µM ([2]; Well no.=5260) of 96.8%.
`C=CCc1ccccc1OCC(O)CNC(C)C` (stereo not shown) [Alprenolol (hydrochloride)] was tested, and the remaining activity at 1.25 µM ([1]; Well no.=6327) was 102% and the remaining activity at 3.75 µM ([2]; Well no.=6327) was 103%.
`N[C@](CCCCB(O)O)(CCN1CCCCC1)C(=O)O` [Arginase inhibitor 1] was tested, and the remaining activity at 1.25 µM ([1]; Well no.=8697) was 106% and the remaining activity at 3.75 µM ([2]; Well no.=8697) was 105%.
With `CC(C)Oc1cccnc1N(C)C1CCN(Cc2ccccc2)CC1` [U-101958 maleate] the remaining activity at 1.25 µM ([1]; Well no.=1526) was 93.8% and the remaining activity at 3.75 µM ([2]; Well no.=1526) was 92.1%.
Work on `CCCCCC[C@H]1C(=O)O[C@H](C)[C@H](NC(=O)c2cccc(NC=O)c2O)C(=O)O[C@@H](C)[C@@H]1OC(=O)CC(C)C` [Antimycin A1] yielded a remaining activity at 1.25 µM ([1]; Well no.=3158) of 98.9% and a remaining activity at 3.75 µM ([2]; Well no.=3158) of 98.6%.
`O=C1C[C@@H](c2ccc(O)c(O)c2)Oc2cc(O[C@@H]3O[C@H](CO)[C@@H](O)[C@H](O)[C@H]3O)cc(O)c21` [Eriodictyol-7-O-glucoside] showed a remaining activity at 1.25 µM ([1]; Well no.=3261) of 96.6% and a remaining activity at 3.75 µM ([2]; Well no.=3261) of 95.5%.
Work on `CC(=O)OCC(=O)[C@@]1(O)CC[C@H]2[C@@H]3CCC4=CC(=O)CC[C@]4(C)[C@H]3C(=O)C[C@@]21C` [Cortisone 21-acetate] yielded a remaining activity at 1.25 µM ([1]; Well no.=172) of 92.9% and a remaining activity at 3.75 µM ([2]; Well no.=172) of 92.8%.
`CCCCCCCOc1cc2c(cc1/C(C)=C/c1ccc(C(=O)O)cc1)C(C)(C)CCS2(=O)=O` [4-{(1E)-2-[7-(heptyloxy)-4,4-dimethyl-1,1-dioxido-3,4-dihydro-2H-thiochromen-6-yl]-1-propenyl}benzoic acid] was tested, and the remaining activity at 1.25 µM ([1]; Well no.=5553) was 103% and the remaining activity at 3.75 µM ([2]; Well no.=5553) was 105%.
Molecule `O=c1cc[nH]c(=S)[nH]1` [2-Thiouracil] has a remaining activity at 1.25 µM ([1]; Well no.=5325) of 90.5% and a remaining activity at 3.75 µM ([2]; Well no.=5325) of 90.8%.
`O=C(O)c1cc(O)cc(O)c1` [3,5-Dihydroxybenzoic acid] was tested, and the remaining activity at 1.25 µM ([1]; Well no.=6829) was 101% and the remaining activity at 3.75 µM ([2]; Well no.=6829) was 117%.
`CN1CC[C@]2(CCN3CCc4c(oc5ccccc45)[C@@H]3C2)N(C)C1=O` [MK-912] gave a remaining activity at 1.25 µM ([1]; Well no.=934) of 101% and a remaining activity at 3.75 µM ([2]; Well no.=934) of 104%.
`COc1ccc2cc(CCC(C)=O)ccc2c1` [Nabumetone] showed a remaining activity at 1.25 µM ([1]; Well no.=2005) of 102% and a remaining activity at 3.75 µM ([2]; Well no.=2005) of 101%.
`COc1c(O)c2c(=O)cc(OC)c3c4c(OC)cc(=O)c5c(O)c(OC)c6c(c(c1CC(C)=C6C(C)=O)c23)c54` [Hypocrellin B] was tested, and the remaining activity at 1.25 µM ([1]; Well no.=3691) was 100% and the remaining activity at 3.75 µM ([2]; Well no.=3691) was 103%.
Work on `CN(C)c1nc(N)c(C(=O)NC(=N)N)nc1Cl` [5-(N,N-Dimethyl)amiloride hydrochloride] yielded a remaining activity at 1.25 µM ([1]; Well no.=63) of 102% and a remaining activity at 3.75 µM ([2]; Well no.=63) of 99%.
With `O=C(Nc1ccc([N+](=O)[O-])cc1Cl)c1cc(Cl)ccc1O` [Niclosamide] the remaining activity at 1.25 µM ([1]; Well no.=1093) was 99.3% and the remaining activity at 3.75 µM ([2]; Well no.=1093) was 97.3%.
For `CO[C@H]1C[C@@H]2CC[C@@H](C)[C@@](O)(O2)C(=O)C(=O)N2CCCC[C@H]2C(=O)O[C@H]([C@H](C)C[C@@H]2CC[C@H](n3ncnn3)[C@H](OC)C2)CC(=O)[C@H](C)/C=C(\C)[C@@H](O)[C@@H](OC)C(=O)[C@H](C)C[C@H](C)/C=C/C=C/C=C/1C` [42-(2-Tetrazolyl)rapamycin], the remaining activity at 1.25 µM ([1]; Well no.=7592) was 91% and the remaining activity at 3.75 µM ([2]; Well no.=7592) was 91.6%.
`C=CCN1CC[C@]23c4c5ccc(O)c4O[C@H]2C(=O)CC[C@@]3(O)[C@H]1C5` [Naloxone] was tested, and the remaining activity at 1.25 µM ([1]; Well no.=2060) was 104% and the remaining activity at 3.75 µM ([2]; Well no.=2060) was 103%.
